Test results as given in patent US20080004695A1, “EVEROLIMUS/PIMECROLIMUS-ELUTING IMPLANTABLE MEDICAL DEVICES” (Abbott Cardiovascular Systems Inc., priority 2006, published 2008).

Key:
[1] = 24 hour release of everolimus and pimecrolimus from dual-coated stent in porcine serum; assay type: physicochemical; details: EVAL-based dual-coated 12 mm Vision stent
Procedure: Using the method set forth in Example 1, a 12 mm Vision™ stent was similarly coated with everolimus and pimecrolimus. The 24 hour release of everolimus and pimecrolimus in porcine serum was then measured using methods known in the art. […] For pimecrolimus, 12.4 μg of an expected 60.6 μg of pimecrolimus was released over 24 hours resulting in 20.5% release.

[2] = in vivo release from PVDF-HFP-based coated stent implanted in a pig; details: PVDF-HFP matrix stent implanted in a pig, day 7
Procedure: A 12 mm Vision™ stent was cleaned in a bath of isopropyl alcohol and treated in a plasma cleaner to strip the top layer of molecules from the stent for better coat adhesion. The stent was then spray-coated with a primer solution consisting of 2% PBMA. The coated stent was dried in a convection oven at 80° C. for 0.5 hours.
The stent was then spray-coated with a drug reservoir solution consisting of PVDF-HFP, pimecrolimus and everolimus. A drug:polymer ratio of 1:3.5 of both pimecrolimus and everolimus to PVDF-HFP was used to coat the stent in order to obtain 64 μg of pimecrolimus and 64 μg of everolimus in the final coating. Spray coating parameters and the solvent were identical to those used for coating with the primer layer.
The stent was implanted in a pig and 1, 3 and 7 day release rates were obtained and compared with 24 hour release rates in porcine serum. […] By day 7, release of both drugs was 30%.

SMILES | % release over 24 hours [1] | amount released over 24 hours [1] | in vivo percent release [2]
CO[C@H]1C[C@@H]2CC[C@@H](C)[C@@](O)(O2)C(=O)C(=O)N2CCCC[C@H]2C(=O)O[C@H]([C@H](C)C[C@@H]2CC[C@@H](OCCO)[C@H](OC)C2)CC(=O)[C@H](C)/C=C(\C)[C@@H](O)[C@@H](OC)C(=O)[C@H](C)C[C@H](C)/C=C/C=C/C=C/1C [everolimus] | 19.7% | 12.2 µg | 30%
CC[C@@H]1/C=C(\C)C[C@H](C)C[C@H](OC)[C@H]2O[C@@](O)(C(=O)C(=O)N3CCCC[C@H]3C(=O)O[C@H](/C(C)=C/[C@@H]3CC[C@H](Cl)[C@H](OC)C3)[C@H](C)[C@@H](O)CC1=O)[C@H](C)C[C@@H]2OC [pimecrolimus] | 20.5% | 12.4 µg | 30%
